What is called EC50 is the concentration that produces a half-maximal response.

The nature of this experiment: Antagonist activity at human CRFR1 expressed in HEK293 cells assessed as inhibition of sauvagine-induced cAMP accumulation by measuring sauvagine EC50 at 1 uM after 30 mins (Rvb = 0.203 nM). A general note: Changes in cAMP serve as a functional read-out for many G protein-coupled receptors.

`CCCCN(CC)c1nc(C)nc2c1sc(=N)n2-c1c(C)cc(C)cc1C`: the EC50 was 1.1 nM.

These data come from BindingDB's records for doi:10.1016/j.ejmech.2017.07.016 (South Dakota State University, 2017).
